Where a SMILES comes first, the peptide text is derived from it. [ ]: non-standard residue; d: D form. The star is where a group is joined. Benzoyl(4-OPh) = O=C(c1ccc(Oc2ccccc2)cc1)*; Lys(Et2) = CCN(CC)CCCC[C@H](N)C(=O)O; Gly(cPent) = N[C@H](C(=O)O)C1CCCC1
How the values were obtained:
[1] = target: T1, wild-type CBX8 chromodomain (Homo sapiens, UniProt Q9HC52); experiment: Time-dependent fluorescence polarization displacement assay, CBX8; type: binding
T1 construct: recombinant CBX8 chromodomain (ChD)
T1 sequence (Q9HC52 11-69 limits assumed): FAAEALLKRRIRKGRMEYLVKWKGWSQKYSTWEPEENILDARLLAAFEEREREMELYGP
Procedure: (A) The fraction of labeled protein as determined by UV integration on reverse phase HPLC. CBX8 ChD and P2 were incubated at 10 μM each for 16 hours at 37° C. UV absorption measured at 215 nm. (B) Mass spectra of CBX8 ChD treated overnight with inhibitor P2 (top, red) and control CBX8 ChD (bottom, green). […] (C) Time dependent fluorescence polarization displacement assays of indicated chromodomains with P2. Assays were conducted using SW2_123 as an FP probe (FIG. S15) at 100 nM. All proteins were used at 2 μM in PBS (pH 7), 0.02% Tween 20. Error bars represent s.d.
A fluorescence polarization (FP) displacement assay was used to evaluate the covalent binding of cyclic imine warhead containing inhibitors.
To validate labeling of the targeted tyrosine residue (Y39), this amino acid was mutated to phenylalanine, which is structurally similar but lacks reactivity to the cyclic imine.

[2] = target: T2, endogenous CBX8 (Homo sapiens, UniProt Q9HC52); experiment: In-gel fluorescence labeling in HEK293T cell lysates; type: binding; settings: ~20 μM, 20 eq competitor with P2
T2 sequence (Q9HC52 1-389): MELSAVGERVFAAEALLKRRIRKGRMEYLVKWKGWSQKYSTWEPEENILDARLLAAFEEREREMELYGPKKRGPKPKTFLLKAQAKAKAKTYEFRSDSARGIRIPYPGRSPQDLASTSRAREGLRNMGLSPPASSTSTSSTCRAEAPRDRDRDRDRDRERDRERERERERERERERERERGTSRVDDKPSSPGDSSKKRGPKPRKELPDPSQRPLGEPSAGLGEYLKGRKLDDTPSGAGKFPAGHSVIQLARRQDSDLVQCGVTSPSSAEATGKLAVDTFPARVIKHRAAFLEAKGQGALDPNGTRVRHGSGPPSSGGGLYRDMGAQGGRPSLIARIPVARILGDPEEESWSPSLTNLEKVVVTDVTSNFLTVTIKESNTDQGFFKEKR
Procedure: After incubation of the inhibitor P2 at 1 μM in HEK293T cell lysates for 1 h at 37° C., click chemistry was conducted to conjugate TAMRA-azide to the C-terminal alkyne of P2 prior to SDS-PAGE.

[3] = target: T3, CBX8 ChD (Homo sapiens, UniProt Q9HC52); settings: cited from earlier work
T3 construct: recombinant CBX8 chromodomain (ChD)
T3 sequence (Q9HC52 11-69 limits assumed): T1 sequence (Q9HC52 11-69 limits assumed)

[4] = tested on: CBX8 binding to chromatin; CBX8-mediated gene expression; settings: MLL-AF9 transformed leukemia; cited from earlier work

With CC[C@H](C)[C@H](NC(=O)[C@@H](NC(=O)c1ccc(Oc2ccccc2)cc1)C1CCCC1)C(=O)N[C@@H](CCCCN(CC)CC)C(=O)N[C@@H](CO)C(N)=O [SW2_110A] ({Benzoyl(4-OPh)}-[Gly(cPent)]I[Lys(Et2)]S-NH2) as the molecule, how does the “time-dependent change of potency (IC50)” value ([1]; further incubation) read?
Its value is “did not”.

And the “IC50 without additional incubation time (in words)” value ([1]; no additional incubation)?
Its value is “comparable IC50 values”.

And the “effect on P2 protein labeling on co-incubation” value [2]?
The value was “protein labeling was reduced”.

What about the “selectivity over CBX2” value ([3]; CBX8 over CBX2) of the same molecule?
The value was 6 fold.

And the Kd [3]?
Its Kd is 800 nM.

What about the “selectivity for CBX8 over CBX4, CBX6, and CBX7” value ([3]; in words) of the same molecule?
Its value is “high selectivity”.

What about the CBX8-mediated gene expression [4] of the same molecule?
The CBX8-mediated gene expression was “reduces CBX8-mediated gene expression”.

And the “inhibition of CBX8 binding to chromatin” value [4]?
The value was “inhibits CBX8 binding to chromatin”.
